How the values were obtained:
[1] = system: cortical neurons; assay: Lipid profile of cultured cortical neurons by UPLC-MS; assay type: cell-based, mouse
Method: (§1) Cortical neurons were cultured as previously described. In short, the cortex from E18 C57/B6 mice of both genders was dissected and digested in 0.5 mg/mL papain for 30 min. Then, 100 μL fetal bovine serum (HyClone) was added to inactivate papain. The cells were then placed into Neurobasal medium (Gibco), supplemented with B27 (Gibco) and 1% penicillin-streptomycin (10,000 U/mL; Gibco). AraC (100 nM; Sigma) was used to inhibit glial proliferation in DIV1-DIV3. After 10 days of culture with AAV-scramble, AAV-shLipin1, AAV-shDgat1 or AAV-shDgat2, cells were harvested, and then TG or PC levels were measured according to the manufacturer's protocol (ab65336 and ab83377).
Lipid extraction was performed using the Folch method. Cortical neurons were lysed in a 2:1 chloroform:methanol mixture. After the upper phase was siphoned, the solvent was dried by line blowing with nitrogen. Lipid extracts were analyzed using a Synapt G2 HDMS mass spectrometer coupled with an ACQUITY UPLC system (Waters, Milford, USA). The UPLC separation was carried out using a Charge Surface Hybrid column (particle size: 1.7 μm; length: 100 mm; i.d.: 2.1 mm). The mobile phase consisted of solvent A (0.1% formic acid in water, v/v) and solvent B (0.1% formic acid in acetonitrile, v/v), each with 10 mM ammonium acetate. The elution gradient conditions were as follows: 0 min, 40% B; 2 min, 43% B; 2-2.1 min, 50% B; 12 min, 54% B; 12.1 min, 70% B; 12.1-18 min, 99% B. The flow rate was 0.2 mL min^−1, and the injection volume was 2 μL. A two minutes post-run time was set to fully equilibrate the column. Column temperature and sample chamber temperature were set to 55° C. and 6° C., respectively. […]
Because PAP activity is critical for Lipin1-dependent axon growth, it was hypothesized that Lipin1 may control axon regrowth by regulating glycerolipid synthesis in neurons. […] Glycerolipid levels were directly measured after eliminating glial cells by adding cytosine arabinoside (AraC) to the culture. […] Lipid extraction of cortical neurons was analyzed by ultra-performance liquid chromatography-mass spectrometry (UPLC-MS) system. […]

[2] = system: adult DRG neurons; assay: Axon elongation of replated adult DRG neurons after shRNA/AAV treatment (Tuj1 staining, longest neurite); assay type: cell-based, mouse; conditions: for effect on axon regrowth / axon growth of DRG neurons: shRNA in WT DRG neurons vs control shRNA
[3] = system: cortical neurons; assay: Total TG and PC levels in cortical neurons by enzymatic hydrolysis assays; assay type: cell-based, mouse; conditions: lipid hydrolysis assay, DGAT1 or DGAT2 depletion
Method: as §1
Because UPLC-MS might not identify all lipid molecular species, the total TG and PC levels were further measured by performing enzymatic hydrolysis assays. TG levels were decreased by 40% after Lipin1 depletion (FIG. 3E). […] Because injury triggers Lipin1 elevation in RGCs, the data on lipid changes after Lipin1 KD indicate that axotomy may program lipid metabolism to increase triglyceride and decrease PL production. This injury-triggered bias in lipid synthesis may contribute to the declined axon growth in CNS neurons. By depleting Lipin1, injured neurons may redirect two arms of the branch and shift lipid storage to membrane lipid production for axon regrowth.

[4] = system: DRG neurons; assay: Axon elongation of cultured DRG neurons treated with inhibitor compounds; assay type: cell-based, mouse; conditions: for axon regrowth / axon regeneration in DRG neuron culture: one day after compound treatment, A-922500 500 nM, pradigastat 1 μM, PF combination 10 μM each; for axon elongation in dissociated primary DRG neuron culture: Atglistatin 10 μM, KLH-45 10 μM (figure legend), vs DMSO vehicle
Method: DRG primary culture and replating were performed as previously described. In brief, for primary culture, L4-L6 DRGs from 7-8 weeks wild-type mice of both genders were dissected and then digested in 0.5% collagenase for 1.5 h. After termination of digestion, DRGs were pipetted 20-30 times in a tube for complete dissociation. Neurobasal-A with B27 as a supplement was used as a medium for DRG culture. Virus was added at 1 day in vitro (DIV1) for genetic manipulation. […]
For replating DRG neuron culture, at DIV9-11 of primary DRG culture, cells were gently pipetted on culture dishes. Cells were flushed by 20-30 rounds of pipetting in each well of a 6-well plate. After all the cells were resuspended, they were replated onto a 24-well plate. Fixation and staining were performed 24 h after replating. Tuj1 staining was used to visualize axons and cell bodies of neurons. The lengths of the longest neurites from each DRG neuron were measured manually by NeuronJ in ImageJ. Average lengths of 10-20 neurites from 3 individual mice were used in each group.
In the final step of the glycerol phosphate pathway DGAT enzymes catalyze DGs into TGs. To assess the effect of blocking the DGAT enzyme, commercially available, DGAT1 inhibitors were used in culture. A-922500 (500 nM) and pradigastat (1 μM) were individually tested in a culture medium of DRG neurons. A combination of PF-06424439 (10 μM) and PF-046201101 (10 μM) was also tested in a culture medium of DRG neurons. […] Then, a KD experiment was performed by transfecting Dgat1 shRNA (shDgat1) targeting SEQ ID NO: 8, Dgat2 shRNA (shDgat2) targeting SEQ ID NO: 9 into DRG neurons. […] Because axotomy increases Lipin1 expression in RGCs, a study was conducted to determine whether DGAT enzymes were also regulated by axonal injury.

[5] = system: DRG neurons; assay: Lipid droplet formation in cultured DRG neurons (BODIPY staining); assay type: cell-based, mouse; conditions: cultured adult DRG neurons, three days, vs DMSO vehicle
Method: DRG primary culture and replating were performed as previously described. In brief, for primary culture, L4-L6 DRGs from 7-8 weeks wild-type mice of both genders were dissected and then digested in 0.5% collagenase for 1.5 h. After termination of digestion, DRGs were pipetted 20-30 times in a tube for complete dissociation. Neurobasal-A with B27 as a supplement was used as a medium for DRG culture. Virus was added at 1 day in vitro (DIV1) for genetic manipulation. Atglistatin (10 μM), KLH-45 (1 μM), paradigastat (1 μM) or A-922500 (500 nM) treatment was used for ATGL, DDHD2 or DGAT1 inhibition.
For BODIPY staining on cultured DRG neurons, cells were first fixed in 4% PFA for 10 min and permeabilized with 0.1% Triton X-100 in 4% NGS. After cells were blocked, the Tuj1 antibody was applied in blocking buffer and incubated at 4° C. overnight. Coverslips were then washed three times with PBS and incubated with secondary antibodies at room temperature for 2 h. Cells were finally incubated with 200 nM BODIPY (Sigma) in blocking buffer for 30 min before mounting.
Experiments were performed to manipulate TG lipases in vitro. In cultured adult DRG neurons with vehicle treatment, lipid droplets were barely detected (FIG. 4B), consistent with the notion that neurons constantly turn over TGs with minimum storage. […] Then, the function of TG lipases was examined in axon regeneration in vivo. […]

[6] = system: sensory axons in the sciatic nerve; assay: Sciatic nerve crush, sensory axon regeneration (SCG10 staining); assay type: in vivo, mouse; conditions: WT mice, i.p. KLH-45 30 mg/kg/day, Atglistatin 40 mg/kg/day, 5 days before and 2 days after injury; two days regrowth
Method: KLH-45 (30 mg/kg/day) or Atglistatin (40 mg/kg/day) were delivered by intraperitoneal injection for 5 consecutive days before injury and 2 days after injury. The same dosage of DMSO injection was used as a control treatment. Sciatic nerve injury was performed as previously described. Briefly, after an incision was made on the skin at the middle thigh level, muscle was gently dissected to expose the sciatic nerve. Then, the sciatic nerve was crushed for 10 s by forceps (Dumont #2; Fine Science Tools). For the sham group, the sciatic nerve was only exposed but not crushed.
Sciatic nerve sections with SCG10 staining were used to quantify the regeneration index. A column with a width of 50 pixels was drawn at different distances from the lesion center, and the average intensity of SCG10 staining was measured using ImageJ. The distance between the lesion center and the column with half the intensity of the lesion center was considered as the regeneration index.
Consistently, Ddhd2 KD in isolated DRG neurons suppressed axon elongation in culture, and as a positive control Lipin1 KD increased the axon length. Then, vehicle KLH-45, or KLH-45 combined with Atglistatin was systematically administered into WT mice. The sciatic nerve was then crushed, and the sensory axons were allowed to regrow for two days before examination. […]

[7] = after Dgat1 KD, compared to the control shRNA group

With “shDgat1: Dgat1 shRNA targeting SEQ ID NO: 8 (GCCCTTCAAGGATATGGACT; the letters are possibly those of the target site)” the “identified TG species levels” value ([1]; after Dgat1 KD vs control shRNA) was “decreased”, the “PC(29:1) increase” value [1, 7] was “more than eightfold” and the “PC(36:2) increase” value [1, 7] was “more than eightfold”. The “effect on axon regrowth / axon growth of DRG neurons” value [2] was “significantly boosted axon growth”, the PC content [3] was “increased” and the “TG level in neurons” value [3] was “decreased the TG level”.
In the case of “shDgat2: Dgat2 shRNA targeting SEQ ID NO: 9 (GCTACTTCCGAGACTACTTT; target site or template, no part of the molecule)”, the “effect on axon regrowth / axon growth of DRG neurons” value [2] is reported as “significantly boosted axon growth”, the PC content [3] is reported as “increased” and the “TG level in neurons” value [3] is reported as “decreased the TG level”.
With “Lipin1 shRNA: short hairpin RNA against Lipin1, plasmid transfected into DRG neurons (CGGAACTCTGTAGACAGAAT)” the “axon elongation enhanced by” value ([2]; shRNA plasmid transfected for three days, replated, fixed 24 h after replating, vs control shRNA) was 20%.
For `O=C(Nc1ccccc1)Nc1ccc(-c2ccc(C(=O)[C@@H]3CCC[C@H]3C(=O)O)cc2)cc1` [A-922500], the “axon regrowth / axon regeneration in DRG neuron culture” value [4] was “demonstrated axon regrowth”.
`O=C(O)C[C@H]1CC[C@H](c2ccc(-c3ccc(Nc4ccc(C(F)(F)F)nc4)cn3)cc2)CC1` [pradigastat] was tested, and the “axon regrowth / axon regeneration in DRG neuron culture” value [4] was “demonstrated axon regrowth”.
`CN(C)C(=O)Nc1cccc(-c2ccc(N(C)C)cc2)c1` [Atglistatin] was tested, and the “TG storage in neurons (lipid droplet formation)” value [5] was “dramatically increased TG storage” and the “axon elongation in dissociated primary DRG neuron culture” value [4] was “significantly inhibited axon elongation”.
For `O=C(N(CCc1ccccc1)C1CCCCC1)n1ncc(-c2ccc(OC(F)(F)F)cc2)n1` [KLH-45], the “TG storage in neurons (lipid droplet formation)” value [5] was “dramatically increased TG storage”, the “axon elongation in dissociated primary DRG neuron culture” value [4] was “significantly inhibited axon elongation” and the “spontaneous sensory axon regeneration after sciatic nerve crush” value [6] was “modestly inhibited”.

Reference: patent publication US12016933B2, “Method for stimulating axonal regeneration” (The Hong Kong University of Science and Technology, priority 2020, dated 2024)
